Data reported in publication PMC4900628, “Critical Evaluation of P2X7 Receptor Antagonists in Selected Seizure Models” (PLoS ONE, 2016).
Where “and” joins values, the source holds several entries; their conditions need not be identical. Equal values may be shown once.

Tests used:
human P2X7R = biological target: T1, human P2X7R (Homo sapiens, UniProt Q99572); assay: fluorometric Ca2+ assay (ATP-induced [Ca2+]i response) in HEKhP2X7 cells; type: cell-based; settings: fluo-4, 1 mM ATP, read-out: Potency IC50 ± SEM, Human P2X7R
T1 construct: expressed in transfected cells
T1 sequence (Q99572 1-595): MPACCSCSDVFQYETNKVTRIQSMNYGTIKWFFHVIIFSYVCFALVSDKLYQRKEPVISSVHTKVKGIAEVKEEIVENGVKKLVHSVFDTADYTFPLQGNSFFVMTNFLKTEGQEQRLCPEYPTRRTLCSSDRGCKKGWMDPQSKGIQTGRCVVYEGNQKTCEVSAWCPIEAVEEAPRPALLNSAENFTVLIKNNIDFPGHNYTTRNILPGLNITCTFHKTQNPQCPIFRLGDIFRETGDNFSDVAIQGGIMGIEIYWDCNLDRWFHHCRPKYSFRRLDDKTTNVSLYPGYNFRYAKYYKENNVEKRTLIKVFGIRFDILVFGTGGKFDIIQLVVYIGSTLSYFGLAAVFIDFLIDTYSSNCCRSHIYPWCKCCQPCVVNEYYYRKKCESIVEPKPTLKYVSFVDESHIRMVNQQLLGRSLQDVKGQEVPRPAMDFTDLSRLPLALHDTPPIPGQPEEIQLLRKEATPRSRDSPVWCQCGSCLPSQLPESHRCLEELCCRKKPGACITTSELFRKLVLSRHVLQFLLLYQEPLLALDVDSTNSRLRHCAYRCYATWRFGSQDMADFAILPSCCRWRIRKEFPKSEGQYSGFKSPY
Protocol: Cells were grown in a humidified incubator at 37°C in an atmosphere supplemented with 5% CO2. […] HEK293mP2X7 were cultured in DMEM under similar conditions as described above, but containing 100 μg/ml zeocin (Invitrogen). […] Expression of the transgene was induced by supplementing the medium with 1 μg/ml tetracycline (Sigma-Aldrich, Taufkirchen, Germany) 24 h prior to the experiments. All fluorometric Ca^2+ assays in cell suspensions were performed in 384-microwell plates (Corning, No. 3655, Lowell, MA, USA) with a fluorescence-imaging microplate reader (POLARstar Omega, BMG Labtech, Offenburg, Germany) (for details, see [61, 68]). […] Microwell plates were repetitively scanned every 16 s in the fast scanning mode of the device. […] Data were normalized to the baseline values before ATP application (F/F0). […] ATP-solution was freshly prepared in Mg^2+-free HBS solution and adjusted to pH 7.4. Aliquots of stock solutions were stored at -20°C and freshly diluted with the appropriate HBS solution. […] Results are expressed as mean ± SEM. […] In the PTZ-T, the number of animals in the group with clonic seizures and the latency time were analysed using Fisher's exact probability test and the Mann-Whitney rank sum test, respectively. For multiple comparisons of the latency time a one-way ANOVA with the Holm-Sidak post hoc test was used. The influence of AFC on the plasma and brain concentrations of the antiepileptic drugs was statistical compared using the same procedure. In the PTZ-kindling model, the mean seizure stage within a group was calculated in relation to the number of PTZ-injections. Statistical comparison between vehicle- and compound-treated groups in this model was performed with two-way repeated measures ANOVA, followed by the Holm-Sidak post hoc test. […] In fully kindled rats, the calculated mean seizure stage within a group after vehicle- and compound-treatment were compared using a paired t-test. P < 0.05 was the accepted minimum level of significance.

PTZ-induced kindling = PTZ-induced kindling development; type: in vivo, rats; settings: for mean seizure stages after 8-day treatment-free interval (21st-25th PTZ-injection, vehicle only): rats formerly treated with TIIAS 30, BBG 50, AFC 30 mg/kg i.p. or JNJ 15 mg/kg s.c.; for mean number of PTZ-injections needed to produce the first generalized seizure (≥ stage 3) vs vehicle / effect on PTZ-kindling development (mean seizure stages): rats; for mean number of PTZ-injections needed to produce the first generalized seizure (≥ stage 3) vs vehicle: TIIAS 30, BBG 50, AFC 30 mg/kg i.p., JNJ 15 mg/kg s.c.; for effect on PTZ-kindling development (mean seizure stages): TIIAS 30 and BBG 50 mg/kg i.p. 45 min, AFC 30 mg/kg i.p. 45 min, JNJ 15 mg/kg s.c. 30 min before each PTZ 35 mg/kg i.p., every 48 h, 20 injections
Protocol: For PTZ-kindling, the initial sub-convulsive dose of PTZ (35 mg/kg) was injected i.p. once every 48 h (on Monday, Wednesday, and Friday, three times a week). After vehicle or vehicle/compound pre-treatment, PTZ was injected and the rats were individually observed for 30 min. Behavioural seizure responses were scored according to a defined graduation from stage 0 to stage 5. […] Rats received 20 successive PTZ-kindling stimulations. After an 8-day treatment-free interval, the animals were re-tested with PTZ (21st-25th injection) and vehicle pre-treatment without the compounds. […] Additional care was taken the hours following generalized tonic-clonic seizures and status epilepticus by providing the animals with soft food pellets and tap water if required. All efforts were made to minimize suffering. […] Chemicals, Toronto, Canada) was slowly added. The pH was adjusted with 1N NaOH (similar amount of NaOH as HCl), all with continuous stirring. […] The drug solutions or suspensions were prepared immediately before use; all doses refer to the salts. Animals in the control group received equivalent volumes of the vehicle (in mice always 10 ml/kg, in rats 1 ml/kg [JNJ], 3 ml/kg [AFC] or 4 ml/kg [BBG, TIIAS], depending on the solubility of the different compounds). Doses and peak time effects were selected on the basis of effective doses from corresponding in vivo studies in the literature: BBG (e.g.), tanshinone IIA (e.g.) and from manufacturer's experimental data: AFC, JNJ (see, [80]). Data were analysed using SigmaPlot (vers. 12.0, Systat Software, Erkrath, Germany) and SPSS (IBM SPSS Statistics 20, […], Germany), respectively. Results are expressed as mean ± SEM. […] In the MES-T, the current intensity inducing tonic hindlimb extensions in 50% of the mice (CC50 values with confidence limits for 95% probability) and the statistical significance was calculated using Probit analysis (SPSS). […] In the PTZ-T, the number of animals in the group with clonic seizures and the latency time were analysed using Fisher's exact probability test and the Mann-Whitney rank sum test, respectively. For multiple comparisons of the latency time a one-way ANOVA with the Holm-Sidak post hoc test was used. The influence of AFC on the plasma and brain concentrations of the antiepileptic drugs was statistical compared using the same procedure. In the PTZ-kindling model, the mean seizure stage within a group was calculated in relation to the number of PTZ-injections. Statistical comparison between vehicle- and compound-treated groups in this model was performed with two-way repeated measures ANOVA, followed by the Holm-Sidak post hoc test. The mean number of PTZ-injections needed to produce the first generalized seizure (≥ stage 3 convulsions) in the vehicle- versus compound-treated groups was statistically compared using a Mann-Whitney rank sum test. In fully kindled rats, the calculated mean seizure stage within a group after vehicle- and compound-treatment were compared using a paired t-test. P < 0.05 was the accepted minimum level of significance.

[1] = set-up: method as in earlier work; settings: 45.5 mg/kg i.p. every 48h for 1 month, ref [11] of S1 File, cited from earlier work

| SMILES | IC50 (human P2X7R) | mean seizure stages after 8-day treatment-free interval (21st-25th PTZ-injection, vehicle only) (PTZ-induced kindling) | mean number of PTZ-injections needed to produce the first generalized seizure (≥ stage 3) vs vehicle (PTZ-induced kindling) | effect on PTZ-kindling development (mean seizure stages) (PTZ-induced kindling) | brain-plasma ratio in mice [1] | brain concentrations in mice ([1]; spectrophotometric analysis) [nM] |
| --- | --- | --- | --- | --- | --- | --- |
| Cc1c(S(=O)(=O)[O-])oc2c1C(=O)C(=O)c1c-2ccc2c1CCCC2(C)C.[Na+] [Tanshinone TIIAS, tanshinone IIS sulfonic sodium] | 300 nM and 310 nM | no differences of the mean seizure stages | required significantly more PTZ-injections | moderate, yet significant retarding effect on kindling development | – | – |
| CCOc1ccc(Nc2ccc(/C(=C3C=C/C(=[N+](/CC)Cc4cccc(S(=O)(=O)[O-])c4)C=C/3C)c3ccc(N(CC)Cc4cccc(S(=O)(=O)O)c4)cc3C)cc2)cc1 [Brilliant Blue G] | 980 ± 70 nM | no differences of the mean seizure stages | required significantly more PTZ-injections | moderate, yet significant retarding effect on kindling development | 0.02 | 150 |
| O=C(NCC1(N2CCN(c3ccccc3)CC2)CCOCC1)c1cccnc1Sc1ccccc1 [JNJ-47965567, N-[[4-(4-phenyl-piperazin-1-yl)tetrahydro-2H-pyran-4-yl]-methyl]-2-(phenyl-thio) nicotinamide] | 5 ± 0.5 nM | persisted after compound treatment ceased | required significantly more PTZ-injections | significantly reduced the PTZ-kindling development | – | – |
